Measured values reported in patent US8975259B2, “Compositions and methods for inhibiting G protein signaling” (University of Rochester, priority 2007, dated 2015).
“And” between values parts separate entries of the source, which are not always exact repeats. Equal entries are not always repeated. “Also recorded” adds a separate entry of the source.

Columns and labels:
[1] = test system: carrageenan-induced paw edema in mice; assay: Carrageenan-induced paw edema and neutrophil abundance
[2] = test system: fMLP-dependent Ca2+ release in differentiated HL60 cells; assay: fMLP-dependent Ca2+ release in fura-2 loaded DMSO-differentiated HL60 cells; format: cell-based, human; conditions: 10 μM compound, 250 nM fMLP, result in words
Procedure: (§1) Cells were pretreated with DMSO or 10 μM compounds for 5 min prior to stimulation with 250 nM fMLP. […] Normalized peak Ca^2+ responses were pooled from three independent experiments each (mean±SEM). Cells were pretreated with DMSO (▪) or compounds (▴) for 5 min prior to stimulation. FIG. 5C is the same as A except 10 μM M201 was tested. […] Differentiated HL60 cells were treated with 10 μM compound prior to stimulation with 250 nM fMLP. Translocation of endogenous GRK2 was determined by Western blotting with a GRK2 antibody and quantitative chemiluminescence. Data are mean±SEM from 5 experiments, * P<0.05, **P<0.01 ANOVA. […] Differentiated HL60 cells stably over-expressing GFP-PHAkt were treated with 10 μM compound prior to stimulation with 100 nM fMLP. Translocation of GFP-PHAkt to the membrane was determined by Western blotting with an anti-GFP antibody and quantitative chemiluminescence. Data are mean±SEM from 4 experiments. *** P<0.001 ANOVA. […] Differentiated HL60 cells were pretreated with 10 μM of compound prior to stimulation with 1 μM fMLP for 5 min. Levels of phosphorylated and total ERK were determined by Western blotting.
Ca^2+ fluxes were measured using two 35 mL cultures of differentiated HL-60 neutrophil cultures (0.2×10^6 cells/mL). Cells were cultured for three days with in DMSO
(1.2%), washed in HSS and resuspended in 2 mL HBSS at a concentration of 7×10^s cells/mL. Addition of DMSO to the growth medium induces differentiation of these cells into morphologically and functionally mature neutrophils
(Collins, et al. (1978) Proc. Natl. Acad. Sci. USA 75:2458; Collins, et al. (1979) J. Exp. Med. 149:969). Neutrophils were preloaded with fura-2 (1 μM), a fluorescent Ca^2+-sensitive indicator (Suh, et al. (1996) J. Biol. Chem. 271:32753), for 45 minutes, washed with HBSS and resuspended in 2 mL of indicator-free HBSS. An 140 μL aliquote of cells was added to a total of 2 mL HBSS. Fluorescence ratios were taken by dual excitation at 340 and 380 nm and emission at 510 nm. After a stable baseline was established, either DMSO or NSC119910 was added and incubated for 5 minutes. […]

[3] = test system: M3 muscarinic receptor-dependent Ca2+ release in HEK-293 cells; assay: Carbachol-dependent Ca2+ release in HEK-293 cells expressing M3 muscarinic receptor; format: cell-based; conditions: 10 μM; result in words
[4] = test system: acute morphine antinociceptive tolerance in mice; assay: Acute morphine antinociceptive tolerance (repeated i.c.v. dosing, tail-flick); format: in vivo, mouse
[5] = molecular target: T1, Gαi1-Gβ1γ2 interaction (UniProt P54311+P63212); assay: Flow cytometry competition for FITC-Gαi1 binding to immobilized b-Gβ1γ2
T1 construct: made in house; host or cells: b-βγ: Sf9 insect cells
Procedure: (2003) supra; Sarvazyan, et al. (1998) J. Biol. […] Fluorescein-labeled Ga^ (Fan) was prepared in accordance with standard methods (Sarvazyan, et al. (1998) supra). Assays were used to determine peptide effects on Gα-Gβγ interactions included competition and dissociation assays (Ghosh, et al. (2003) supra). […] The bead-associated fluorescence was then recorded in a BD Biosciences […] flow cytometer. Data was corrected for background fluorescence and fit with a sigmoid dose response curve using Graph Pad Prism 4. To measure dissociation of Fan from b-Gβaγ2, 100 pM of Fa^ was incubated with 50 pM immobilized b-Gβ1γ2 at room temperature for 15-20 minutes.

[6] = test system: ERK1 and ERK2 activation in differentiated HL60 cells; assay: fMLP-induced ERK1 and ERK2 activation in differentiated HL60 cells; format: cell-based, human; conditions: 10 μM compound, 1 μM fMLP, result in words
Procedure: as §1

[7] = molecular target: T2, PLCβ3-bGβ1γ2 interaction (UniProt P54311+P63212); assay: PLCβ3 binding to biotinylated Gβ1γ2 (avidin agarose precipitation); conditions: M119 10 μM, M201 1 μM; result in words
T2 construct: made in house; host or cells: bGβ1γ2: Sf9 insect cells
Procedure: (§2) Purified PLCβ2 (0.25 ng) was assayed in the presence (▴) or absence (▪) of 100 nM purified Gβ1γ2. […] Assays contained 10 ng of purified p101/p110 PI3Kγ heterodimer with or without 100 nM purified Gβ1γ2. Left panel: (▴) 100 nM Gβ1γ2 or (▪) no βγ. […] M119 or M201 and 25 nM purified GRK2 were added simultaneously to 250 nM biotinylated Gβ1γ2 (bGβ1γ2) immobilized on streptavidin agarose. GRK2 was detected with antibody to GRK2. Data are representative (mean ±SEM, except D) repeated at least three times each. […] 30 nM bGβ1γ2 was incubated with either 30 nM PLCβ2 or PLCβ3 in the presence or absence of M119 or M201 for 16 h at 4° C. before precipitation with avidin agarose and detection with PLCβ2,or Gβ antibodies. […] Same as 4E with PLCβ3.

[8] = test system: opioid-induced antinociception in mice; conditions: M119 100 nmol i.c.v. with morphine i.c.v.; Bonacci et al., 2006; cited from earlier work
[9] = test system: opioid-induced antinociception in mice; assay: 55° C. warm-water tail-flick antinociception; format: in vivo, mouse
[10] = test system: GRK2 translocation in differentiated HL60 cells; assay: fMLP-dependent GRK2 translocation to membrane in differentiated HL60 cells; format: cell-based, human; conditions: 10 μM compound, 250 nM fMLP; result in words
Procedure: as §1

[11] = test system: ATP-dependent Ca2+ increase in differentiated HL-60 neutrophils; assay: ATP-dependent Ca2+ increase in differentiated HL-60 neutrophils; format: cell-based, human; conditions: result in words
Procedure: (Collins, et al. (1978) Proc. Natl. Acad. Sci. USA 75:2458; Collins, et al. (1979) J. Exp. Med. 149:969). Neutrophils were preloaded with fura-2 (1 μM), a fluorescent Ca^2+-sensitive indicator (Suh, et al. (1996) J. Biol. Chem. 271:32753), for 45 minutes, washed with HBSS and resuspended in 2 mL of indicator-free HBSS. An 140 μL aliquote of cells was added to a total of 2 mL HBSS. Fluorescence ratios were taken by dual excitation at 340 and 380 nm and emission at 510 nm. After a stable baseline was established, either DMSO or NSC119910 was added and incubated for 5 minutes. Subsequently, either fMLP or ATP agonists were added to activate release of Ca^2+ from intracellular stores.

[12] = molecular target: T3, PLCβ2-bGβ1γ2 interaction (UniProt P54311+P63212); assay: PLCβ2 binding to biotinylated Gβ1γ2 (avidin agarose precipitation); conditions: M119 10 μM, M201 1 μM; result in words
T3 construct: made in house; host or cells: bGβ1γ2: Sf9 insect cells
Procedure: as §2

SMILES: O=C(O)c1ccccc1-c1c2ccc(=O)c(O)c-2oc2c(O)c(O)ccc12 (racemic) [Gallein]
- reduction of number of neutrophils in the edematous fluid ([1]; 100 mg/kg i.p., 2 h after carrageenan): approximately half
- ED50 ([1]; Mus musculus, ip, read-out: ED50 for inhibiting paw edema): ~20 mg/kg
- effect on carrageenan-induced paw edema ([1]; i.p. 1 h before carrageenan, gallein 100 mg/kg, indomethacin 2.5 mg/kg, result in words): reduced paw edema to levels comparable with that of indomethacin
- reduction of exudate volume ([1]; i.p. pretreatment, 2 h after carrageenan): approximately 75%
- reduction of paw swelling ([1]; oral gavage 30 mg/kg 1 h before carrageenan, 3 h after carrageenan): 40%
- effect on paw thickness in the absence of carrageenan ([1]; result in words): no effect

SMILES: O=C(O)C1CCCCC1c1c2ccc(=O)c(O)c-2oc2c(O)c(O)ccc12 (stereo not shown) [Compound M119, cyclohexanecarboxylic acid, 2-(4,5,6-trihydroxy-3-oxo-3H-xanthen-9-yl)-(9cl)]
- effect on fMLP-induced Ca^2+ increase [2]: attenuated
- effect on fMLP-induced Ca^2+ increase ([2]; listed as NSC119910): suppressed; also recorded: block
- effect on carbachol-dependent increases in Ca^2+ [3]: no effect
- ED50 of morphine co-administered with M119 ([4]; 6 hr): 0.22 nmol
- ED50 of morphine co-administered with M119 ([4]; time 0): 0.16 nmol
- IC50 [5]: 400 nM
- interactions of Gα subunit with Gβγ subunits ([5]; result in words): blocked
- effect on fMLP-induced activation of ERK1 and ERK2 [6]: did not block
- effect on fMLP-induced activation of ERK1 and ERK2 ([6]; listed as NSC119910): without interfering
- effect on direct binding of bGβ1γ2 to PLCβ3 [7]: inhibited
- leftward shift / potentiation of morphine dose-response [8]: 10 fold
- ED50 of Deltorphin II in the presence of M119 ([9]; M119 100 nmol i.c.v.): 11 nmol
- ED50 of DAMGO co-administered with M119 ([9]; mouse, in vivo): 0.01 nmol
- ED50 of DPDPE with M119 ([9]; mouse, in vivo): 5.4 nmol
- ED50 of U50,488 with M119 ([9]; mouse, in vivo): 17 nmol
- ED50 of morphine co-administered with the compound ([9]; mouse, in vivo): 0.065 nmol and 0.069 (0.023-0.201) nmol
- Percent Antinociception ± S.E.M. ([9]; mouse, in vivo): 100 ± 0.0% and 79.3 ± 9.1% and 64.4 ± 10.0% and 55.3 ± 12.7%
- effect of compound alone on baseline antinociception ([9]; mouse, in vivo): no effect
- leftward shift in the DAMGO dose-response curve ([9]; mouse, in vivo): 7 fold
- shift in the U50,488 dose-response curve ([9]; mouse, in vivo): 2 fold
- shift of morphine ED50 / increase in analgesic potency of morphine ([9]; mouse, in vivo): 11 fold
- leftward shift of systemic morphine ED50 ([9]; mouse, in vivo, 100 mg/kg): 4 fold
- effect on fMLP-dependent GRK2 translocation to the membrane fraction [10]: substantially inhibited
- effect on ATP-induced [Ca^2+] increase [11]: not significantly suppressed
- effect on direct binding of bGβ1γ2 to PLCβ2 [12]: inhibited
